This is an account of results in ChEMBL document CHEMBL3244335 (J Med Chem, 1977).

Data set [1] addresses Histamine H2 receptor (Rattus norvegicus) (UniProt P25102). Briefly: Antagonist at histamine H2 receptor in rat uterus assessed as inhibition of histamine-induced response. The data set is classed as tissue-based.
The target in data set [2] is Histamine H2 receptor (Cavia porcellus) (UniProt P47747). The data set can be described thus: Antagonist at histamine H2 receptor in guinea pig atrium assessed as inhibition of histamine-induced response. The settings on record: Cardiac atrium.
Chain of Histamine H2 receptor (Cavia porcellus) (P47747 whole entry): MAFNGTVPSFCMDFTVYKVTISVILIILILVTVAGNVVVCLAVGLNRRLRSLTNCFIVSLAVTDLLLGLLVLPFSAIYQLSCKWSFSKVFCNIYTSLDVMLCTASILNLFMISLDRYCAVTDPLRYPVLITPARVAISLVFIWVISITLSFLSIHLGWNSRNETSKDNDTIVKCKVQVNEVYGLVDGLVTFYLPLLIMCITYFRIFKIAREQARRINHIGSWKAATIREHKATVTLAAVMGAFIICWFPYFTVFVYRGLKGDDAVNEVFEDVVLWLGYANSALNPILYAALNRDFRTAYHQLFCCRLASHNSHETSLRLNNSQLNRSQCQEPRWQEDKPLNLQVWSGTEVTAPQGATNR
Data set [3] in a line: Octanol-water partition coefficient, log P of the compound at 37 degC. Type of data set: physicochemical.
Data set [4] is described as follows: Ionization constant, pKa of the compound. Type of data set: physicochemical.
A short description of data set [5]: Octanol-water partition coefficient, log P of the compound at pH 9.2. Type of data set: physicochemical.
Data set [6] in a line: Solubility of the compound in water at 37 degC. To be noted: buffer. The data set is classed as physicochemical.
A short description of data set [7]: Ionization constant, pKa of the imidazole ring of the compound. Type of data set: physicochemical.
A short description of data set [8]: Octanol-water partition coefficient, P of the compound at 37 degC.

Chain of Histamine H2 receptor (Rattus norvegicus) (P25102 whole entry): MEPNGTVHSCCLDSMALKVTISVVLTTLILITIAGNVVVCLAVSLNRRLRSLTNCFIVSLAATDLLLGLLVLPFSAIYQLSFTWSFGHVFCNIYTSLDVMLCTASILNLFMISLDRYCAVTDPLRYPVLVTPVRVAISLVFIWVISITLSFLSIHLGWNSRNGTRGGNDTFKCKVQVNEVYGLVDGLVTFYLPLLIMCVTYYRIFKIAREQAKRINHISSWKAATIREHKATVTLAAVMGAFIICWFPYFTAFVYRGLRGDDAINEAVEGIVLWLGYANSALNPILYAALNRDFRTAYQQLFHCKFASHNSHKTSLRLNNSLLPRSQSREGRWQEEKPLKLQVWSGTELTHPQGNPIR

As for `C/N=C(/NCCSCc1[nH]cnc1C)N[N+](=O)[O-]`, the Kb in data set [1] and in data set [2] was 1.4 µM in each case. For `CNC(=S)NCCSCc1c[nH]cn1`, the Kb in data set [1] and in data set [2] was 3.2 µM throughout. As to `CNC(=NC#N)NC`, the logP (as a rule, the decadic logarithm of the partition coefficient of the neutral form, usually between octanol and water) in data set [3] is -0.398.

Regarding `C/N=C(\S)NCCCCc1c[nH]cn1`, the Kb (usually the affinity of an antagonist, worked out from how it opposes an agonist) in data set [1] stood at 6.6 µM; in data set [2] it was 7.8 µM.

Consider `CNC(=N)NCCSCc1nc[nH]c1C`, for which the values for the Kb in data set [1] and in data set [2] were 5.5 µM and 16 µM, respectively. Turning to `CN/C(=N\C#N)NCCCCc1c[nH]cn1`, the Kb is 7.1 µM in data set [1] and 8.3 µM in data set [2]. As for `CNC(=O)NCCSCc1[nH]cnc1C`, the Kb stood at 7.1 µM in data set [1] and 22 µM in data set [2]. For the molecule `CN/C(=N\CCSCc1nc[nH]c1C)NC#N`, the antagonist equilibrium constant (Kb) in data set [1] worked out at 0.81 µM.

Take `CN/C(=N\C(N)=O)NCCSCc1nc[nH]c1C`: the Kb turned out to be 6.9 µM in data set [1] and 7.1 µM in data set [2]. The matching figures for `CNC(=S)NCCSCc1[nH]cnc1C`: 0.75 µM and 0.92 µM. `N#CNC(=N)N`: in data set [3], the logP is -1.16. In addition, the pKa (commonly the negative logarithm of the acid dissociation constant) in data set [4] was -0.4. `N=C(N)N` [GUANIDINE]: the pKa in data set [4] stood at 13.6. Consider `CN/C(=N/CCSCc1nc[nH]c1C)NC#N` [CIMETIDINE], for which the logP in data set [5] was 2.5. The molecule also returned a solubility in data set [6] of 1.14%.

As to `CN/C(=N/C#N)NCCCCc1nc[nH]c1C`, the Kb in data set [1] came out at 4.9 µM; in data set [2], 8.1 µM. Consider `C/N=C(\S)NCCSCc1[nH]cnc1C` [METIAMIDE], for which the logP in data set [5] (read-out: logP (converted)) was 0.505. The pKa in data set [7] is 6.8. For the same molecule, the solubility in data set [6] stood at 0.32%. Regarding `CNC(=S)NC`, in data set [3], the logP was -0.237. As to `NC(N)=S` [THIOUREA], the P in data set [8] came to 0.09. The molecule also displayed a pKa in data set [4] of -1.2. Consider `CNC(=S)NCCCCc1nc[nH]c1C`, for which the figures for the Kb in data set [1] and in data set [2] were 10.7 µM and 8.9 µM, respectively. As for `CN/C(=N\C#N)NCCSCc1c[nH]cn1`, the Kb in data set [1] amounted to 1.6 µM; in data set [2] it was 1.4 µM.
